Assay results: ChEMBL document CHEMBL5107971, “RpoN-Based stapled peptides with improved DNA binding suppress Pseudomonas aeruginosa virulence” (RSC Med Chem, 2022)
Activity calls are given as the source filed them. The rule behind the calls is not given here. Numbered stars: 1 amine (or outer) side, 2 acyl side, 3 side chain; on linkers, the order of the positions; unused ones are H or OH. Bridge positions count the residues as written; N and C are the ends. Square brackets hold non-standard residues; d marks the D form. Peptide text beside a SMILES is read from it. X1 = CC(C)[C@@H](CN[*:1])C(=O)[*:2]; S5 = C=CCCC[C@](C)(N)C(=O)O; Nle = CCCC[C@H](N)C(=O)O; Orn = NCCC[C@H](N)C(=O)O; βAla = NCCC(=O)O

How the values were obtained:
[1] = system: DNA; test: Inhibition of RpoN-mediated GlnAp2 transcription in Escherichia coli XL-1 Blue expressing GFP assessed as decrease in GFP levels at 10 uM incubated for 4 hrs under minimal nitrogen media by fluorescence based assay relative to control; type: nucleic-acid assay
[2] = system: Pseudomonas aeruginosa; test: Antibacterial activity against Pseudomonas aeruginosa assessed as inhibition of cell growth upto 32 ug/ml incubated overnight by microtiter broth dilution assay; type: functional; conditions: dose <= 32 µg/ml
[3] = biological target: dsDNA; test: Binding affinity to FITC-labelled dsDNA (unknown origin) assessed as dissociation constant incubated for 10 mins by fluorescence polarization assay; type: nucleic-acid assay
[4] = system: Pseudomonas aeruginosa; test: Antibacterial activity against Pseudomonas aeruginosa infected in Galleria mellonella larvae assessed as enhancement of survival rate at 10 mg/kg administered intra-hemocoelicly and measured after 24 hrs relative to control; type: functional
[5] = Toxicity in Galleria mellonella larvae assessed as survivability at 10 mg/kg administered intra-hemocoelicly and measured after 24 hrs; type: organism-based; conditions: in vivo, other
[6] = Hemolytic activity in human RBC at 100 uM measured after 1 hrs relative to control; type: toxicity, cell-based, Erythrocyte; conditions: red blood cells (erythrocytes), read-out: Activity
[7] = system: Pseudomonas aeruginosa; test: Antibacterial activity against Pseudomonas aeruginosa infected in Galleria mellonella larvae assessed as enhancement of survival rate at 10 mg/kg administered intra-hemocoelicly and measured after 36 hrs relative to control; type: functional
[8] = system: DNA; test: Binding affinity to Escherichia coli GlnAp2 labelled with FITC assessed as dissociation constant incubated for 10 mins by fluorescence polarization assay; type: nucleic-acid assay

inhibition [1] | Structure (SMILES) | MIC [2] | Kd [3] | Activity [4] | Activity [5] | hemolysis at 1 h, 100 µM [6] | Activity [7] | Kd [8]
Active | CCCC[C@H](NC(=O)[C@H](CCC(=O)O)NC(=O)[C@H](CCCNC(=N)N)NC(=O)[C@H](Cc1ccc(O)cc1)NC(=O)[C@H](CCCCN)NC(=O)[C@H](C)NC(=O)[C@]1(C)CCC/C=C\CCC[C@](C)(NC(=O)[C@H](C)NC(=O)[C@H](CCCCN)NC(=O)[C@H](Cc2ccccc2)NC(=O)CCNC(C)=O)C(=O)N[C@@H](CCCNC(=N)N)C(=O)N[C@@H](CCCNC(=N)N)C(=O)N[C@@H]([C@@H](C)O)C(=O)N1)C(=O)N[C@@H](CC(C)C)C(N)=O (Ac-[βAla]FKA[S5]RRT[S5]AKYRE[Nle]L-NH2; staple (Z) 5-9) |  |  |  |  |  |  | 
Active | CCCC[C@H](NC(=O)[C@H](CCC(=O)O)NC(=O)[C@H](CCCNC(=N)N)NC(=O)[C@H](Cc1ccc(O)cc1)NC(=O)[C@H](CCCNC(=N)N)NC(=O)[C@H](C)NC(=O)[C@]1(C)CCC/C=C\CCC[C@](C)(NC(=O)[C@@H](NC(=O)[C@H](CCCCN)NC(=O)[C@H](Cc2ccccc2)NC(=O)CCNC(C)=O)C(C)C)C(=O)N[C@@H](CCCNC(=N)N)C(=O)N[C@@H](CCCNC(=N)N)C(=O)N[C@@H]([C@@H](C)O)C(=O)N1)C(=O)N[C@@H](CC(C)C)C(N)=O (Ac-[βAla]FKV[S5]RRT[S5]ARYRE[Nle]L-NH2; staple (Z) 5-9) |  |  |  |  |  |  | 
Active | CCCC[C@H](NC(=O)[C@H](CCC(=O)O)NC(=O)[C@H](CCCNC(=N)N)NC(=O)[C@H](Cc1ccc(O)cc1)NC(=O)[C@H](CCCCN)NC(=O)[C@H](C)NC(=O)[C@]1(C)CCC/C=C\CCC[C@](C)(NC(=O)[C@@H](NC(=O)[C@H](CCCN)NC(=O)[C@H](Cc2ccccc2)NC(=O)CCNC(C)=O)C(C)C)C(=O)N[C@@H](CCCNC(=N)N)C(=O)N[C@@H](CCCNC(=N)N)C(=O)N[C@@H]([C@@H](C)O)C(=O)N1)C(=O)N[C@@H](CC(C)C)C(N)=O (Ac-[βAla]F[Orn]V[S5]RRT[S5]AKYRE[Nle]L-NH2; staple (Z) 5-9) |  |  |  |  |  |  | 
Active | CCCC[C@H](NC(=O)[C@H](CCC(=O)O)NC(=O)[C@H](CCCNC(=N)N)NC(=O)[C@H](Cc1ccc(O)cc1)NC(=O)[C@H](CCCCN)NC(=O)[C@@H](NC(=O)[C@]1(C)CCC/C=C\CCC[C@](C)(NC(=O)[C@H](C)NC(=O)[C@H](CCCCN)NC(=O)[C@H](Cc2ccccc2)NC(=O)CCNC(C)=O)C(=O)N[C@@H](CCCNC(=N)N)C(=O)N[C@@H](CCCNC(=N)N)C(=O)N[C@@H]([C@@H](C)O)C(=O)N1)C(C)C)C(=O)N[C@@H](CC(C)C)C(N)=O (Ac-[βAla]FKA[S5]RRT[S5]VKYRE[Nle]L-NH2; staple (Z) 5-9) |  |  |  |  |  |  | 
Active | CCCC[C@H](NC(=O)[C@H](CCC(=O)O)NC(=O)[C@H](CCCNC(=N)N)NC(=O)[C@H](Cc1ccc(O)cc1)NC(=O)[C@H](CCCCN)NC(=O)[C@H](C)NC(=O)[C@]1(C)CCC/C=C\CCC[C@](C)(NC(=O)[C@H](Cc2ccccc2)NC(=O)[C@H](CCCCN)NC(=O)[C@H](Cc2ccccc2)NC(=O)CCNC(C)=O)C(=O)N[C@@H](CCCNC(=N)N)C(=O)N[C@@H](CCCNC(=N)N)C(=O)N[C@@H]([C@@H](C)O)C(=O)N1)C(=O)N[C@@H](CC(C)C)C(N)=O (Ac-[βAla]FKF[S5]RRT[S5]AKYRE[Nle]L-NH2; staple (Z) 5-9) |  |  |  |  |  |  | 
Active | CCCC[C@H](NC(=O)[C@H](CCC(=O)O)NC(=O)[C@H](CCCNC(=N)N)NC(=O)[C@H](Cc1ccc(O)cc1)NC(=O)[C@H](CCCCN)NC(=O)[C@H](C)NC(=O)[C@]1(C)CCC/C=C\CCC[C@](C)(NC(=O)[C@@H](NC(=O)[C@H](CCCCN)NC(=O)[C@H](Cc2ccccc2)NC(=O)CCNC(C)=O)C(C)C)C(=O)N[C@@H](CCCNC(=N)N)C(=O)N[C@@H](CCCCN)C(=O)N[C@@H]([C@@H](C)O)C(=O)N1)C(=O)N[C@@H](CC(C)C)C(N)=O (Ac-[βAla]FKV[S5]RKT[S5]AKYRE[Nle]L-NH2; staple (Z) 5-9) | > 32 µg/mL | 0.947 µM |  |  | 3.3% |  | 
Active | CCCC[C@H](NC(=O)[C@H](CCC(=O)O)NC(=O)[C@H](CCCNC(=N)N)NC(=O)[C@H](Cc1ccc(O)cc1)NC(=O)[C@H](CCCCN)NC(=O)[C@H](C)NC(=O)[C@]1(C)CCC/C=C\CCC[C@](C)(NC(=O)[C@@H](NC(=O)[C@H](CCCCN)NC(=O)[C@H](Cc2ccccc2)NC(=O)CCNC(C)=O)C(C)C)C(=O)N[C@@H](CCCCN)C(=O)N[C@@H](CCCNC(=N)N)C(=O)N[C@@H]([C@@H](C)O)C(=O)N1)C(=O)N[C@@H](CC(C)C)C(N)=O (Ac-[βAla]FKV[S5]KRT[S5]AKYRE[Nle]L-NH2; staple (Z) 5-9) | > 32 µg/mL | 1.68 µM |  |  | 3.3% |  | 
75% | CCCC[C@H](NC(=O)[C@H](CCC(=O)O)NC(=O)[C@H](CCCNC(=N)N)NC(=O)[C@H](Cc1ccc(O)cc1)NC(=O)[C@H](CCCCN)NC(=O)[C@H](C)NC(=O)[C@]1(C)CCC/C=C\CCC[C@](C)(NC(=O)[C@@H](NC(=O)[C@H](CCCCN)NC(=O)[C@H](Cc2ccccc2)NC(=O)CCNC(C)=O)C(C)C)C(=O)N[C@@H](CCCNC(=N)N)C(=O)N[C@@H](CCCNC(=N)N)C(=O)N[C@@H]([C@@H](C)O)C(=O)N1)C(=O)N[C@@H](CC(C)C)C(N)=O (Ac-[βAla]FKV[S5]RRT[S5]AKYRE[Nle]L-NH2; staple (Z) 5-9) | > 32 µg/mL | 0.834 µM |  | Non-Toxic | 6.6% |  | 1.14 µM
Active | CCCC[C@H](NC(=O)[C@H](CCC(=O)O)NC(=O)[C@H](CCCNC(=N)N)NC(=O)[C@@H](Cc1ccc(O)cc1)NC(=O)[C@H](CCCCN)NC(=O)[C@H](C)NC(=O)[C@]1(C)CCC/C=C\CCC[C@](C)(NC(=O)[C@@H](NC(=O)[C@H](CCCCN)NC(=O)CCNC(C)=O)C(C)C)C(=O)N[C@@H](CCCNC(=N)N)C(=O)N[C@@H](CCCNC(=N)N)C(=O)N[C@@H]([C@@H](C)O)C(=O)N1)C(=O)N[C@@H](CC(C)C)C(N)=O |  |  |  |  |  |  | 
 | CCCC[C@H](NC(=O)[C@H](CCC(=O)O)NC(=O)[C@H](CCCNC(=N)N)NC(=O)[C@H](Cc1ccc(O)cc1)NC(=O)[C@H](CCCCN)NC(=O)[C@H](C)NC(=O)[C@@H](NC(=O)[C@@H](NC(=O)[C@H](CCCNC(=N)N)NC(=O)[C@H](CCCNC(=N)N)NC(=O)[C@H](C)NC(=O)[C@@H](NC(=O)[C@H](CCCCN)NC(=O)[C@H](Cc1ccccc1)NC(=O)CCNC(C)=O)C(C)C)[C@@H](C)O)C(C)C)C(=O)N[C@@H](CC(C)C)C(N)=O (Ac-[βAla]FKVARRTVAKYRE[Nle]L-NH2) |  |  |  |  | 0.12% |  | 

Structure (SMILES) | inhibition [1] | MIC [2] | Kd [3] | Activity [4] | Activity [5] | hemolysis at 1 h, 100 µM [6] | Activity [7] | Kd [8]
CCCC[C@H](NC(=O)[C@H](CCC(=O)O)NC(=O)[C@H](CCCNC(=N)N)NC(=O)[C@H](Cc1ccc(O)cc1)NC(=O)[C@H](CCCCN)NC(=O)[C@H](C)NC(=O)[C@]1(C)CCC/C=C\CCC[C@](C)(NC(=O)[C@@H](NC(=O)[C@H](CCCNC(=N)N)NC(=O)[C@H](Cc2ccccc2)NC(=O)CCNC(C)=O)C(C)C)C(=O)N[C@@H](CCCNC(=N)N)C(=O)N[C@@H](CCCNC(=N)N)C(=O)N[C@@H]([C@@H](C)O)C(=O)N1)C(=O)N[C@@H](CC(C)C)C(N)=O (Ac-[βAla]FRV[S5]RRT[S5]AKYRE[Nle]L-NH2; staple (Z) 5-9) | Active | > 32 µg/mL | 0.346 µM | 80% | Non-Toxic | 1.5% | 20% | 
CCCC[C@H](NC(=O)[C@H](CCC(=O)O)NC(=O)[C@H](CCCNC(=N)N)NC(=O)[C@H](Cc1ccc(O)cc1)NC(=O)[C@H](CCCCN)NC(=O)CNC(=O)[C@]1(C)CCC/C=C\CCC[C@](C)(NC(=O)[C@@H](NC(=O)[C@H](CCCCN)NC(=O)[C@H](Cc2ccccc2)NC(=O)CCNC(C)=O)C(C)C)C(=O)N[C@@H](CCCNC(=N)N)C(=O)N[C@@H](CCCNC(=N)N)C(=O)N[C@@H]([C@@H](C)O)C(=O)N1)C(=O)N[C@@H](CC(C)C)C(N)=O (Ac-[βAla]FKV[S5]RRT[S5]GKYRE[Nle]L-NH2; staple (Z) 5-9) | Active | > 32 µg/mL | 0.376 µM | 80% | Non-Toxic | 0.53% | 10% | 
CCCC[C@H](NC(=O)[C@H](CCC(=O)O)NC(=O)[C@H](CCCNC(=N)N)NC(=O)[C@H](Cc1ccc(O)cc1)NC(=O)[C@H](CCCCN)NC(=O)[C@H](C)NC(=O)[C@]1(C)CCC/C=C\CCC[C@](C)(NC(=O)[C@H](CNC(=O)[C@H](CCCCN)NC(=O)[C@H](Cc2ccccc2)NC(=O)CCNC(C)=O)C(C)C)C(=O)N[C@@H](CCCNC(=N)N)C(=O)N[C@@H](CCCNC(=N)N)C(=O)N[C@@H]([C@@H](C)O)C(=O)N1)C(N)=O (Ac-[βAla]FK[X1][S5]RRT[S5]AKYRE[Nle]-NH2; staple (Z) 5-9) | Active | > 32 µg/mL | 0.385 µM | Active | Non-Toxic | 35% |  | 
CCCC[C@H](NC(=O)[C@H](CCC(=O)O)NC(=O)[C@H](CCCNC(=N)N)NC(=O)[C@]1(C)CCC/C=C\CCC[C@](C)(NC(=O)[C@H](CCCNC(=N)N)NC(=O)[C@H](CCCNC(=N)N)NC(=O)[C@H](C)NC(=O)[C@@H](NC(=O)[C@H](CCCCN)NC(=O)[C@H](Cc2ccccc2)NC(=O)CCNC(C)=O)C(C)C)C(=O)N[C@@H](C(C)C)C(=O)N[C@@H](C)C(=O)N[C@@H](CCCCN)C(=O)N1)C(=O)N[C@@H](CC(C)C)C(N)=O (Ac-[βAla]FKVARR[S5]VAK[S5]RE[Nle]L-NH2; staple (Z) 8-12) | Active | > 32 µg/mL | 0.366 µM | Active | Non-Toxic | 10.7% |  | 
